ChEMBL document CHEMBL1158233, “Cytotoxic Cembranoids from the Soft Corals Sinularia gibberosa and Sarcophyton trocheliophorum” (1996)
In brackets after ≈: the same amount, converted by molar mass.

Tests used:
Type in all cases: functional
A549 = test: Cytotoxicity against human A549 cells after 6 days by MTT assay; details: A549, 144 h, read-out: ED50 (the source's name)
P388 = test: Cytotoxicity against mouse P388 cells after 3 days by MTT assay; details: P388, 72 h, read-out: ED50 (the source's name)
KB = test: Cytotoxicity against human KB cells after 3 days by MTT assay; details: 72 h, read-out: ED50 (the source's name)
HT-29 = test: Cytotoxicity against human HT29 cells after 6 days by MTT assay; details: HT-29, 144 h, read-out: ED50 (the source's name)

SMILES | EC50 (A549) | EC50 (P388) | EC50 (KB) | EC50 (HT-29)
CC1=C2CC/C(C)=C/CC[C@@](C)(O)[C@@H](O)CC/C(C)=C/[C@@H]2OC1=O | 24.7 µg/mL (≈ 73.7 µM) | 3.27 µg/mL (≈ 9.78 µM) | > 50 µg/mL | 22.9 µg/mL (≈ 68.4 µM)
CC1=C2CC/C(C)=C/CC[C@]3(C)O[C@H]3CC/C(C)=C/[C@@H]2OC1=O [SARCOPHINE] | 10.4 µg/mL (≈ 32.8 µM) | 2.42 µg/mL (≈ 7.65 µM) | > 50 µg/mL | 10.5 µg/mL (≈ 33.1 µM)
C/C1=C\CCC(C)(O)C2C=C(C(C)(C)O)C(C/C(C)=C/CC1)O2 (stereo not drawn) | 1.7 µg/mL (≈ 5.3 µM) | 0.23 µg/mL (≈ 0.718 µM) | 17.1 µg/mL (≈ 53.4 µM) | 1.81 µg/mL (≈ 5.65 µM)
C/C1=C\C=C(\C(C)(C)O)CC[C@@]2(C)O[C@@H]2CC/C(C)=C/CC1 | 1.03 µg/mL (≈ 3.38 µM) | 0.01 µg/mL (≈ 0.0328 µM) | 0.63 µg/mL (≈ 2.07 µM) | 0.64 µg/mL (≈ 2.1 µM)
CC1=C2CC/C(C)=C/CC[C@]3(C)O[C@H]3CC/C(C)=C/[C@@H]2OC1 | 15.7 µg/mL (≈ 52 µM) | 3.87 µg/mL (≈ 12.8 µM) | > 50 µg/mL | 16.1 µg/mL (≈ 53.1 µM)
COC(C)(C)/C1=C/[C@H]2O[C@]2(C)CC/C=C(\C)CC[C@H]2O[C@]2(C)CC1 | > 50 µg/mL | 3.26 µg/mL (≈ 9.75 µM) | > 50 µg/mL | 0.36 µg/mL (≈ 1.08 µM)
C/C1=C\C=C(\C(C)(C)O)C(O)C/C(C)=C/CC/C(C)=C/CC1 (stereo not drawn) | 20.2 µg/mL (≈ 66.2 µM) | 1.54 µg/mL (≈ 5.06 µM) | 14.9 µg/mL (≈ 49 µM) | 0.29 µg/mL (≈ 0.952 µM)
